Measured values reported in patent EP4781984A1 (Beyang Therapeutics Co., Ltd., priority 2023, dated 2025).
Values after ≈ are worked out from the molar mass of the structure shown. Each block holds one molecule with its values, some of them ahead of it.

How the values were obtained:
VEGFR3 = target: T1, VEGFR3 (Homo sapiens, UniProt P35916); test: Kinase inhibitory activity, Mobility Shift Assay (VEGFR3); assay type: biochemical
T1 construct: purchased Invitrogen PV4129
Description: (§1) Assay for Inhibitory Activity of Compounds Against VEGFR and EGFR Kinases
(§2) This assay directly monitors the inhibitory activity of compounds on kinase phosphorylation by measuring non-phosphorylated and phosphorylated substrates in the kinase reaction using Mobility Shift Assays/IMAP™ analysis. Table 2. Reagents and Instruments
(§3) Kinase and DTT were added to 1X kinase buffer to form a 2.5X kinase solution; 10 µL of the 2.5X kinase solution was transferred to a 384-well reaction plate, and 1X kinase buffer was added to the negative control wells. The plate was incubated at room temperature for 10 minutes; FAM-labeled peptide, MgCl2, ATP, and other reagents were added to 1X kinase buffer to form a 2.5X substrate solution; 10 µL of the above 2.5X substrate solution was transferred to the 384-well reaction plate; the plate was incubated at 28°C for varying times, and then 25 µL of stop solution was added to the 384-well reaction plate to terminate the reaction. Conversion rate data were read on a CaliperEZ Reader II. […] IC50 values were fitted using XLFit excel add-in version 5.4.0.8. Y = Bottom + (Top−Bottom)/(1 + […]) [formula]
(§4) X is the log value of compound concentration, Y is the inhibition rate (% inhibition).

melanin = test: Compound binding to melanin; assay type: in vitro ADME; details: cuttlefish (Sepia officinalis), melanin suspension (1 mg/mL), percentage of free drug (not bound to melanin), 2 µM compound, melanin 1 mg/mL in PBS pH 7.4, 37°C
Method in brief: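 Compound at 2 µM final incubated with 1 mg/mL Sepia melanin in PBS pH 7.4, 37°C, 2 hours with shaking; blank in PBS with 0.1% BSA. Supernatant concentration by LC-MS/MS. Fb = 100 − (Ctest/Ccontrol) × 100%.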

[1] = Thermodynamic solubility test; assay type: physicochemical; details: buffer solution, aqueous buffer, thermodynamic from solid; thermodynamic solubility, room temperature, 8 hours shaking; buffers pH 2.0, 6.5, 7.4 used, pH of the tabulated value not given
Method in brief: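 Samples sonicated 10 min, shaken 8 h at room temperature, re-sonicated and centrifuged at 13000 rpm for 15 min. Supernatant recentrifuged and analysed by LC-MS, with concentrations quantified against a 3–5 point calibration curve.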

VEGFR2 = target: T2, VEGFR2 (Homo sapiens, UniProt P35968); test: Kinase inhibitory activity, Mobility Shift Assay (VEGFR2); assay type: biochemical
T2 construct: purchased Carna 08-191
T2 sequence (P35968 20-1356): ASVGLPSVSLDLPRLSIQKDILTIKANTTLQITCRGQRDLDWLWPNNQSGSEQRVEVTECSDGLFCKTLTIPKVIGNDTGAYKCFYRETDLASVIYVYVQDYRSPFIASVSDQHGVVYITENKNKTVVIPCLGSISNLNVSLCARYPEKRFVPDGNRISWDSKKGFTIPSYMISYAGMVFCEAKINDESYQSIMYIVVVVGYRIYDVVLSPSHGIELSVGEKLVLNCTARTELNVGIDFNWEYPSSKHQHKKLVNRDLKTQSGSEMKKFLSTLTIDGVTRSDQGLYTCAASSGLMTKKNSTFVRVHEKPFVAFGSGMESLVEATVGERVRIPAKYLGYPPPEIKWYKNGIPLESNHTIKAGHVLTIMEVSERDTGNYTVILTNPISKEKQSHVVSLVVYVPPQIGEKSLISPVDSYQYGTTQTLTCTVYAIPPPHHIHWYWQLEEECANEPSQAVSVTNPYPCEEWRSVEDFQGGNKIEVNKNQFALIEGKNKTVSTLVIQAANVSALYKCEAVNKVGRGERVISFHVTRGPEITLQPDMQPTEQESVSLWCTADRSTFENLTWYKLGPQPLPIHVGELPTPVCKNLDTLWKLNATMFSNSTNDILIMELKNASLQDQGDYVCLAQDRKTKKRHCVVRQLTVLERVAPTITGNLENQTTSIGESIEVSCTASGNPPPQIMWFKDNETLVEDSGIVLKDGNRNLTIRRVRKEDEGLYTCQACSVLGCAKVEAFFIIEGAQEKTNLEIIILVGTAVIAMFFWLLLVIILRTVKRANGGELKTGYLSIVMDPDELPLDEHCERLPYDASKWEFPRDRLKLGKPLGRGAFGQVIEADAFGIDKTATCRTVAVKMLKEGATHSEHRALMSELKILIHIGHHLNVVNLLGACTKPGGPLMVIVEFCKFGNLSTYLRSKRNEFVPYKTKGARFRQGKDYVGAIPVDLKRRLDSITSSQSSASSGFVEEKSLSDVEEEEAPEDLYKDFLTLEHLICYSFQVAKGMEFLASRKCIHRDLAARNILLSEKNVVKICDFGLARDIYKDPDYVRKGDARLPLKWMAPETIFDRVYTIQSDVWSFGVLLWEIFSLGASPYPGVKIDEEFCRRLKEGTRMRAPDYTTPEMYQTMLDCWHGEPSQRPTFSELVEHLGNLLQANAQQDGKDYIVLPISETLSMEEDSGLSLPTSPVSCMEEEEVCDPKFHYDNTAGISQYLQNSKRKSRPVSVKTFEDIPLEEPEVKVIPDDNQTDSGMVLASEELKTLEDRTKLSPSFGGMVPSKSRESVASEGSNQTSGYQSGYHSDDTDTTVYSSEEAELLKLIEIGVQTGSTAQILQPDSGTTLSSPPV
Description: as §1, §2, §3, §4

VEGFR1 = target: T3, VEGFR1 (Homo sapiens, UniProt P17948); test: Kinase inhibitory activity, Mobility Shift Assay (VEGFR1); assay type: biochemical
T3 construct: purchased Invitrogen PR6731B
T3 sequence (P17948 27-1338): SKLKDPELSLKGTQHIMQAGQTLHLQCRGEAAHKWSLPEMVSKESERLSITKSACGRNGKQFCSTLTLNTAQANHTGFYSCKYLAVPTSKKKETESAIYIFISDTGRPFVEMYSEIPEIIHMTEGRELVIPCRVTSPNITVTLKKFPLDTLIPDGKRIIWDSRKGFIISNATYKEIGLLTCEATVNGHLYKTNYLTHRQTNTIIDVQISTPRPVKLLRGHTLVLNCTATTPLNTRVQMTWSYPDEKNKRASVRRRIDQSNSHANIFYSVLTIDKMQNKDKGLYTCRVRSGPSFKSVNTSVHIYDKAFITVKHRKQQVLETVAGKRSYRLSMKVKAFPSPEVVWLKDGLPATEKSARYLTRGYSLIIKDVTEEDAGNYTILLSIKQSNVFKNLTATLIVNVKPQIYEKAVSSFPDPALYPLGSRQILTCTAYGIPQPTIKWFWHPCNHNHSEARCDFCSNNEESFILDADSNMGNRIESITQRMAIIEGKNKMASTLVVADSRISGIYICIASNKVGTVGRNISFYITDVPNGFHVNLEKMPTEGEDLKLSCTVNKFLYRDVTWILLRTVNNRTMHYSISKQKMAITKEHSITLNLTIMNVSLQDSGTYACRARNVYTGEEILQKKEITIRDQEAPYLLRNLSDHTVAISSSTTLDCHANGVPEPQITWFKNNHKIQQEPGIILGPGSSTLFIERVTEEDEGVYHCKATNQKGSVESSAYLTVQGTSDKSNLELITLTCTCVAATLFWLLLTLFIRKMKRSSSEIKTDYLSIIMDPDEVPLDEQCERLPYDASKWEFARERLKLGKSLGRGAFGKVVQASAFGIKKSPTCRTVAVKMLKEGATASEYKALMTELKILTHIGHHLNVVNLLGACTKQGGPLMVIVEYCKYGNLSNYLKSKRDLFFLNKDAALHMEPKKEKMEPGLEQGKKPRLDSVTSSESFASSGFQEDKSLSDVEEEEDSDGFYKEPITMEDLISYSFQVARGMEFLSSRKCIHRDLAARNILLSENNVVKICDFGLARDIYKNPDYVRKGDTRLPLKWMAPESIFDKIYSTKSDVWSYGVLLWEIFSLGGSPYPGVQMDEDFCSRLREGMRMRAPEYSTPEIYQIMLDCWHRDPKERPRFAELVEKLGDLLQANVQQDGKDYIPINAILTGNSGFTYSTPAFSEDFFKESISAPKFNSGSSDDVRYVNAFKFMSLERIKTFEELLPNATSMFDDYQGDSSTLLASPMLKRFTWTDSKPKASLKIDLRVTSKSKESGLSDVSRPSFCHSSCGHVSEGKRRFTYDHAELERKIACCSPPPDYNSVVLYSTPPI
Description: as §1, §2, §3, §4

[2] = Ophthalmic formulations based on polyethylene glycol series vehicles: composition and state (Example 7); assay type: physicochemical; details: Table 12: 1mg/ml; Polyethylene glycol 400 5, Hydroxypropyl-β-cyclodextrin 10, Tris-HCl buffer (pH 8.3) 10mM, Hydroxypropyl methylcellulose 1, Poloxamer 188 1
Excerpt: In the following ophthalmic formulation preparation examples, "solution" refers to a clear, transparent liquid without visible insoluble matter. "Near-clear solution" refers to a liquid that appears close to a solution upon visual observation but may contain a small amount of insoluble particles or have a slightly opaque color. "Suspension" refers to a liquid that is visibly turbid or opaque. "Gel" refers to a completely or partially gel-like solid.
Example 7: Ophthalmic Formulations Based on Polyethylene Glycol Series Vehicles
According to the formulation composition shown in the tables below, weigh the compound powder, add it to polyethylene glycol 400, and sonicate until dissolved or nearly dissolved (heat to 50°C if necessary). Add this to a Tris-HCl buffer solution containing hydroxypropyl-β-cyclodextrin, poloxamer 188, and gellan gum (or other viscosity modifier), vortex to mix, and prepare into an eye drop formulation.

[3] = Plasma and ocular tissue distribution after single ocular administration of formulations in Dutch Belted rabbits (Example 9); assay type: in vivo; details: for concentration at 0.5 h: male, rabbit, plasma, other: ocular administration (eye drops)
Description: Male Dutch Belted rabbits used in this experiment were purchased from Pizhou Dongfang Breeding Co., Ltd., with animal weights ranging from 1.5 to 2.5 kg. All procedures performed on experimental animals in this experiment complied with the relevant SOP requirements of Suzhou Sunstone New Drug Development Co., Ltd. and were approved by the Institutional Animal Care and Use Committee (IACUC) of Suzhou Sunstone New Drug Development Co., Ltd. Formulation Preparation: Weigh approximately 1 mg of the test substance into a glass vial. After necessary calculation/conversion, sequentially add the eye drop formulation vehicle (Tris-HCl buffer (0.05 mol/L): Tween 80: 0.5% CMC-Na = 49: 1:50). Vortex and sonicate after adding Tris-HCl buffer and Tween 80, then add 0.5% CMC-Na, vortex, and sonicate or cut if necessary, to prepare a 1 mg/mL dosing formulation. All prepared dosing formulations were freshly prepared on the day of administration, sampled, and the actual concentration of the dosing formulation was determined.
On the day of the experiment, animals were administered 1 mg/mL (0.05 mg/eye, 50 µL/eye). There were 2 animals per group. Animals were euthanized at 0.5, 4, or 8 hours after administration, respectively, by an appropriate method, and blood samples and ocular tissues (i.e., cornea, retina, choroid, and sclera) were collected. The collected 1 mL of whole blood was placed in an EDTA-K2 anticoagulant tube, inverted several times to mix thoroughly, and centrifuged (1500-1600 g) for 10 minutes within 30 minutes to separate plasma. The obtained plasma samples were stored at -80°C for bioanalysis. After collection, ocular tissues were washed with pre-cooled saline, dried, and stored at -80°C or under equivalent conditions for subsequent tissue homogenization and sample analysis. For ocular tissues requiring homogenization, the entire or a portion of the tissue was selected, accurately weighed, and homogenized at a 1:10 ratio with 20% methanol-water. The tissue homogenate was stored at -80°C for sample analysis. The concentrations of each analyte in rabbit ocular tissues and plasma obtained in this experiment were determined using an LC-MS/MS analytical method. The matrices were Dutch rabbit plasma (EDTA-K2 anticoagulated) and rabbit ocular tissue (1:10, 20% methanol-water). Left and right eyes were tested separately. BLOQ (Below the Limit of Quantification) is the lowest analyte concentration that can be quantified with acceptable precision and accuracy. Compounds were diluted 1:10 with homogenate before analysis, and if the concentration after dilution was less than 1 ng/mL, it was marked as BLOQ.
Example 9: Detection of Plasma and Ocular Tissue Distribution after Single Ocular Administration of Formulations in Dutch Belted Rabbits
The experimental procedure refers to Example 6. Animals were administered eye drops at 5 mg/mL (0.25 mg/eye, 50 µL/eye) or 1 mg/mL (0.05 mg/eye, 50 µL/eye), respectively. Table 22 Experimental Results
Except for compound I-32, the other components of Suspension A and Solution B are respectively: • Suspension A: Tris(hydroxymethyl)aminomethane-Hydrochloric Acid Buffer (0.05M): Tween 80: 0.5% (w/v) Sodium Carboxymethylcellulose aqueous solution = 49:1:50 (v/v/v); • Solution B: Polyethylene Glycol 400: 50mM Tris(hydroxymethyl)aminomethane-Hydrochloric Acid Buffer (containing 10% Hydroxypropyl-β-cyclodextrin, 1% Poloxamer 188, 0.3% Gellan Gum Gelrite, w/v) = 5:95 (v/v).

[4] = Solution B, 1 mg/mL (0.05 mg/eye, 50 µL/eye), formulation pH 8.3
[5] = Suspension A, 1 mg/mL (0.05 mg/eye, 50 µL/eye), formulation pH 8.4
[6] = Suspension A, 5 mg/mL (0.25 mg/eye, 50 µL/eye), formulation pH 8.4

T1 sequence (P35916 25-1363): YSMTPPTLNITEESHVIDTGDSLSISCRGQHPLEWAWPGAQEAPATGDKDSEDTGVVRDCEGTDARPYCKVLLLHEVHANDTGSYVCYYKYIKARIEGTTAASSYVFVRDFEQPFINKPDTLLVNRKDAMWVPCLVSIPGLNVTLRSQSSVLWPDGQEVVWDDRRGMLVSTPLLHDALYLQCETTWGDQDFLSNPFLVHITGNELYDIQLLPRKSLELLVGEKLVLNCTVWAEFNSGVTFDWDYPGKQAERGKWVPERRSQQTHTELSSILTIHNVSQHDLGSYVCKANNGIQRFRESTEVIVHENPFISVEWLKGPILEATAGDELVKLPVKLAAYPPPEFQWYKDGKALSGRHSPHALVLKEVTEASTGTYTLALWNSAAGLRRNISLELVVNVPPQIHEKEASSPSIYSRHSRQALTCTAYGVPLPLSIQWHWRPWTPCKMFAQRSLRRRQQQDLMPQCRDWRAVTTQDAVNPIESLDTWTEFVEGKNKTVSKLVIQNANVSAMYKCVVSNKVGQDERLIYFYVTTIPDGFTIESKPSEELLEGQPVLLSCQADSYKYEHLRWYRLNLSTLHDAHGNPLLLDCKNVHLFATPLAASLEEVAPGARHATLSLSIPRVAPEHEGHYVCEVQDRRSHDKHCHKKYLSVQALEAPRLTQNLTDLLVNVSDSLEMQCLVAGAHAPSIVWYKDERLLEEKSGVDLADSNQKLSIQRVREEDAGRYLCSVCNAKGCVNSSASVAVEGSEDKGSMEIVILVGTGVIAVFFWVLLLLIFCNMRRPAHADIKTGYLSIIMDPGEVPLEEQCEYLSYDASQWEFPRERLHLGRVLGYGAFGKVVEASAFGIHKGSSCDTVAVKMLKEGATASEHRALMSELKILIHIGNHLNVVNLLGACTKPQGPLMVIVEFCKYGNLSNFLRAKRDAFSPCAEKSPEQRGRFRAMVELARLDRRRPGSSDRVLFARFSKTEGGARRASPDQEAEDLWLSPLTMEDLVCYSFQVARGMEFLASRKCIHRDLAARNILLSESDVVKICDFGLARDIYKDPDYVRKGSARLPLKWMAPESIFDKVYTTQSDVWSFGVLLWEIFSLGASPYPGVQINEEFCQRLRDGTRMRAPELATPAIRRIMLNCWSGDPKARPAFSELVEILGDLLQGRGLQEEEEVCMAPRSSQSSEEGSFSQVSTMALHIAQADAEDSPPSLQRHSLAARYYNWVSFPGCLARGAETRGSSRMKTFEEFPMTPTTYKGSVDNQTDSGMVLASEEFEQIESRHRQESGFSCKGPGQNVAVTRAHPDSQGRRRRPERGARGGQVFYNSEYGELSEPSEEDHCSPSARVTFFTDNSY

- IC50 (VEGFR3): ≤ 1 nM
- fraction unbound at 2 h, 2 µM (melanin): > 0.05
- solubility at 8 h [1]: 0.413 mg/mL (≈ 781 µM)
- IC50 (VEGFR2): ≤ 1 nM
- IC50 (VEGFR1): ≤ 1 nM
Compound: CNC(=O)c1ccccc1Sc1ccc2c(/C=C/c3ccc(OCCN4CCN(C)CC4)cn3)n[nH]c2c1 [Compound I-4]

- IC50 (VEGFR3): ≤ 1 nM
- fraction unbound at 2 h, 2 µM (melanin): 0.01 to 0.05
- IC50 (VEGFR2): ≤ 1 nM
- IC50 (VEGFR1): ≤ 1 nM
Compound: CN1CCN(c2ccc(/C=C/c3n[nH]c4cc(Sc5ccccc5C(=O)NC5CC5)ccc34)nc2)CC1 [Compound I-38, N-cyclopropyl-2-({3-[(E)-2-[5-(4-methylpiperazin-1-yl)pyridin-2-yl]ethenyl]-1H-indazol-6-yl}thio)benzamide]

- fraction unbound at 2 h, 2 µM (melanin): 0.01 to 0.05
- solubility at 8 h [1]: 0.226 mg/mL (≈ 452 µM)
- IC50 (VEGFR1): ≤ 1 nM
Compound: CNC(=O)c1ccccc1Sc1ccc2c(/C=C/c3ccc(OCCN4CCCC4)cn3)n[nH]c2c1 [Compound I-6]

- IC50 (VEGFR3): ≤ 1 nM
- IC50 (VEGFR2): ≤ 1 nM
Compound: O=C(NC1CC1)c1ccccc1Sc1ccc2c(/C=C/c3cccc(CCCN4CCCC4)n3)n[nH]c2c1 [Compound I-121]

- State Description: pH [2]: ~8
- State Description: state [2]: solution
- fraction unbound at 2 h, 2 µM (melanin): 0.01 to 0.05
- solubility at 8 h [1]: 0.327 mg/mL (≈ 672 µM)
- Choroid AUC [3, 4]: 381 ng·h/g
- Conjunctiva AUC [3, 4]: 2142 ng·h/g
- Cornea AUC [3, 4]: 590 ng·h/g
- Plasma Concentration 0.5h [3, 4]: BLOQ
- Retina AUC [3, 4]: 784 ng·h/g
- Sclera AUC [3, 4]: 998 ng·h/g
- Choroid AUC [3, 5]: 526 ng·h/g
- Conjunctiva AUC [3, 5]: 6157 ng·h/g
- Cornea AUC [3, 5]: 3380 ng·h/g
- Iris AUC [3, 5]: 162 ng·h/g
- Retina AUC [3, 5]: 330 ng·h/g
- Sclera AUC [3, 5]: 2175 ng·h/g
- Choroid AUC [3, 6]: 1594.5 ng·h/g
- Conjunctiva AUC [3, 6]: 17380.5 ng·h/g
- Cornea AUC [3, 6]: 5175 ng·h/g
- Iris AUC [3, 6]: 549.5 ng·h/g
- Retina AUC [3, 6]: 613 ng·h/g
- Sclera AUC [3, 6]: 2439.5 ng·h/g
- concentration at 0.5 h [3, 5]: 2.4 ng/mL
- concentration at 0.5 h [3, 6]: 5.6 ng/mL
Compound: CNC(=O)c1ccccc1Sc1ccc2c(/C=C/c3cnn(CCCN4CCCC4)c3)n[nH]c2c1 [Compound I-32, N-methyl-2-((3-((E)-2-(1-(3-(pyrrolidin-1-yl)propyl)-1H-pyrazol-4-yl)ethenyl)-1H-indazol-6-yl)thio)benzamide]

- IC50 (VEGFR3): ≤ 1 nM
Compound: CNC(=O)c1ccccc1Sc1ccc2c(/C=C/c3ccc(O)cn3)n[nH]c2c1 [Compound I-10, 2-({3-[(E)-2-(5-hydroxypyridin-2-yl)ethenyl]-1H-indazol-6-yl}thio)-N-methylbenzamide]

The remaining lines, values behind:

Compound: CNC(=O)c1ccccc1Sc1ccc2c(/C=C/c3ccn(CCN4CCCC4)n3)n[nH]c2c1 [Compound I-13]
- IC50 (VEGFR3): ≤ 1 nM
- fraction unbound at 2 h, 2 µM (melanin): 0.01 to 0.05

Compound: CNC(=O)c1ccccc1Sc1ccc2c(/C=C/c3ccc(OCCN4CCOCC4)cn3)n[nH]c2c1 [Compound I-3, N-methyl-2-((3-((E)-2-(5-(2-(morpholin-4-yl)ethoxy)pyridin-2-yl)ethenyl)-1H-indazol-6-yl)thio)benzamide]
- IC50 (VEGFR3): ≤ 1 nM
- fraction unbound at 2 h, 2 µM (melanin): 0.01 to 0.05
- solubility at 8 h [1]: 0.0005 mg/mL (≈ 0.97 µM)
- IC50 (VEGFR1): ≤ 1 nM

Compound: CNC(=O)c1ccccc1Sc1ccc2c(/C=C/c3ccc(OCCC4CCN(C)CC4)cn3)n[nH]c2c1 [Compound I-5]
- IC50 (VEGFR3): ≤ 1 nM
- fraction unbound at 2 h, 2 µM (melanin): 0.01 to 0.05
- solubility at 8 h [1]: 0.177 mg/mL (≈ 335 µM)
- IC50 (VEGFR2): ≤ 1 nM
- IC50 (VEGFR1): ≤ 1 nM

Compound: CN(C)Cc1ccc(/C=C/c2n[nH]c3cc(Sc4ccccc4C(=O)NC4CC4)ccc23)nc1 [Compound I-40, N-cyclopropyl-2-((3-((E)-2-(5-((dimethylamino)methyl)pyridin-2-yl)ethenyl)-1H-indazol-6-yl)thio)benzamide]
- fraction unbound at 2 h, 2 µM (melanin): 0.01 to 0.05
- IC50 (VEGFR1): ≤ 1 nM

Compound: CNC(=O)c1ccccc1Sc1ccc2c(/C=C/c3ccc(OC[C@@H]4CCN(C)C4)cn3)n[nH]c2c1 [Compound I-39]
- IC50 (VEGFR2): ≤ 1 nM
- IC50 (VEGFR1): ≤ 1 nM

Compound: CNC(=O)c1ccccc1Sc1ccc2c(Nc3ccc(OCCN4CCCC4)cn3)n[nH]c2c1 [Compound I-30, N-methyl-2-((3-((5-(2-(pyrrolidin-1-yl)ethoxy)pyridin-2-yl)amino)-1H-indazol-6-yl)thio)benzamide]
- IC50 (VEGFR3): > 100 nM
- IC50 (VEGFR2): > 100 nM
- IC50 (VEGFR1): > 100 nM

Compound: CNC(=O)c1c(F)cccc1Sc1ccc2c(/C=C/c3ccc(OCCN4CCCC4)cn3)n[nH]c2c1 [Compound I-36, 2-fluoro-N-methyl-6-({3-[(E)-2-{5-[2-(pyrrolidin-1-yl)ethoxy]pyridin-2-yl}ethenyl]-1H-indazol-6-yl}sulfanyl)benzamide]
- fraction unbound at 2 h, 2 µM (melanin): > 0.05
- solubility at 8 h [1]: 0.0162 mg/mL (≈ 31.3 µM)
- IC50 (VEGFR1): > 100 nM

Compound: CNC(=O)c1ccccc1Sc1ccc2c(C#Cc3cc(OCCN4CCCC4)ccn3)n[nH]c2c1 [Compound I-23]
- IC50 (VEGFR3): > 100 nM
- fraction unbound at 2 h, 2 µM (melanin): 0.01 to 0.05
- solubility at 8 h [1]: 0.859 mg/mL (≈ 1730 µM)
